We go through two molecules from paper PMC9502897, “Design, Synthesis and Structure—Activity Relationships of Phenylalanine-Containing Peptidomimetics as Novel HIV-1 Capsid Binders Based on Ugi Four-Component Reaction” (Molecules, 2022).

The test system of data set [1] is HIV-1. As to the kind of experiment: Anti-HIV-1 activity in MT-4 cells (MTT method). Type of data set: cell-based. As to conditions: Human immunodeficiency virus 1, MT4; MT-4 cells, 50% protection against HIV-induced cytopathicity, MTT method. The method, then: (§1) The evaluation of the antiviral activity of the compounds against HIV in MT-4 cells was performed using the MTT assay as described below. Stock solutions (10 × final concentration) of test compounds were added in 25 μL volumes to two series of triplicate wells to allow simultaneous evaluation of their effects on mock- and HIV-infected cells at the beginning of each experiment. Serial 5-fold dilutions of test compounds were made directly in flat-bottomed 96-well microtiter trays using a Biomek 3000 robot (Beckman Instruments, Fullerton, CA). Untreated HIV- and mock-infected cell samples were included as controls. HIV stock ([…]) at 100–300 CCID50 (50% cell culture infectious doses) or culture medium was added to either the infected or mock-infected wells of the microtiter tray. Mock-infected cells were used to evaluate the effects of the test compound on uninfected cells to assess the test compounds’ cytotoxicity. Exponentially growing MT-4 cells were centrifuged for 5 min at 220 g, and the supernatant was discarded. The MT-4 cells were resuspended at 6 × 10^5 cells/mL, and 50 μL volumes were transferred to the microtiter tray wells. Five days after infection, the viability of mock- and HIV-infected cells was examined spectrophotometrically using the MTT assay. The MTT assay is based on the reduction of yellow-colored 3-(4,5-dimethylthiazol-2-yl)-2,5-diphenyltetrazolium bromide (MTT) (Acros Organics) by mitochondrial dehydrogenase activity in metabolically active cells to a blue-purple formazan that can be measured spectrophotometrically. The absorbances were read in an eight-channel computer-controlled photometer (Infinite M1000, Tecan) at two wavelengths (540 and 690 nm). All data were calculated using the median absorbance value of three wells.

Data set [2] deals with HIV-2. The data set is described as follows: Anti-HIV-2 activity in MT-4 cells (MTT method). Type of data set: cell-based. The procedure: as §1
A short description of data set [3]: in vitro. The conditions noted are these: human, CC50. The procedure:
as §1

Data set [4] has as its target T1, HIV-1 NL4-3 CA monomer (Human immunodeficiency virus type 1 group M subtype B, UniProt P12493).
T1 construct: the HIV-1 NL4-3 capsid protein constructs; His6 (C); made in house; host or cells: E. coli BL21-Codon Plus (DE3)-RIL
As to the kind of experiment: biochemical. As to conditions: SPR. Type of data set: binding.

For data set [5], the target named is HIV-1 NL4-3 CA hexamer (Human immunodeficiency virus type 1 group M subtype B, UniProt P12493, A146C/E177C/M317A/W316A). As to the kind of experiment: SPR binding to disulfide-stabilized NL4-3 CA hexamer.
For data set [6] the following is noted: metabolic stability; cited from earlier work.
The test system of data set [7] is HIV. As to conditions: moderate activity; cited from earlier work.
Setting [8] is: Human immunodeficiency virus 2, MT4, 50% protection against HIV-induced cytopathicity.

The molecule `COc1ccc(N(C)C(=O)[C@H](Cc2cc(F)cc(F)c2)NC(=O)CN(Cc2ccc(F)cc2)C(=O)Cn2nc(C(F)(F)F)c3c2CCCC3)cc1` [I-19, (S)-3-(3,5-difluorophenyl)-2-(2-(N-(4-fluorobenzyl)-2-(3-(trifluoromethyl)-4,5,6,7-tetrahydro-1H-indazol-1-yl)acetamido)acetamido)-N-(4-methoxyphenyl)-N-methylpropanamide] displayed a melting point of 46 to 48 °C. Further, the concentration giving a half-maximal response (EC50) in data set [1] came out at 2.53 ± 0.84 µM. Moreover, the midpoint of the response in data set [2] (setting [8]), the EC50, lay at 12.9 ± 3.72 µM. This molecule gave a CC50 at 5 days in data set [3] of 108 ± 27.4 µM. Further, the “Ratio KD (monomer)/KD(hexamer)” value in data set [4] amounted to 0.36. Moreover, in data set [4] (1:1 binding model), the “Koff Monomer” value was found to be 0.0301 ± 0.0172 S^−1 and the “Kon Monomer” value worked out at 4160 ± 1670 M^−1S^−1. The molecule further yielded a dissociation constant Kd in data set [4] (25 °C, at least 3 replicates) of 13.3 µM. In data set [5] (1:1 binding model), the “Koff Hexamer” value is recorded as 0.00758 ± 0.000504 S^−1 and the “Kon Hexamer” value was found to be 628 ± 152 M^−1S^−1. The molecule also returned a Kd in data set [5] (25 °C, at least 3 replicates) of 36.9 µM.

Turning to `Cc1[nH]c2ccccc2c1CC(=O)NC(Cc1ccccc1)C(=O)N(C)c1ccccc1` (centres unmarked) [PF-74, reference compound], the EC50 in data set [1] is 0.26 ± 0.08 µM; in data set [2] (50% protection against HIV-induced cytopathicity) it was 2.22 ± 0.31 µM; in data set [2] (setting [8]), above 2.22 µM; in data set [7], 0.52 to 0.9 µM. Moreover, the T1/2 in data set [6] is 30 to 78 s. Besides, the CC50 at 5 days in data set [3] is 73.8 ± 7.54 µM.
